The term IC50 denotes the midpoint of a concentration-inhibition curve. Higher therefore signals weaker potency in that assay.

Common to all, as to type: cell-based
One test addresses T1, human TLR8 (Homo sapiens, UniProt Q9NR97).
T1 construct: host or cells: HEK-Blue cells
T1 sequence (Q9NR97 27-1041): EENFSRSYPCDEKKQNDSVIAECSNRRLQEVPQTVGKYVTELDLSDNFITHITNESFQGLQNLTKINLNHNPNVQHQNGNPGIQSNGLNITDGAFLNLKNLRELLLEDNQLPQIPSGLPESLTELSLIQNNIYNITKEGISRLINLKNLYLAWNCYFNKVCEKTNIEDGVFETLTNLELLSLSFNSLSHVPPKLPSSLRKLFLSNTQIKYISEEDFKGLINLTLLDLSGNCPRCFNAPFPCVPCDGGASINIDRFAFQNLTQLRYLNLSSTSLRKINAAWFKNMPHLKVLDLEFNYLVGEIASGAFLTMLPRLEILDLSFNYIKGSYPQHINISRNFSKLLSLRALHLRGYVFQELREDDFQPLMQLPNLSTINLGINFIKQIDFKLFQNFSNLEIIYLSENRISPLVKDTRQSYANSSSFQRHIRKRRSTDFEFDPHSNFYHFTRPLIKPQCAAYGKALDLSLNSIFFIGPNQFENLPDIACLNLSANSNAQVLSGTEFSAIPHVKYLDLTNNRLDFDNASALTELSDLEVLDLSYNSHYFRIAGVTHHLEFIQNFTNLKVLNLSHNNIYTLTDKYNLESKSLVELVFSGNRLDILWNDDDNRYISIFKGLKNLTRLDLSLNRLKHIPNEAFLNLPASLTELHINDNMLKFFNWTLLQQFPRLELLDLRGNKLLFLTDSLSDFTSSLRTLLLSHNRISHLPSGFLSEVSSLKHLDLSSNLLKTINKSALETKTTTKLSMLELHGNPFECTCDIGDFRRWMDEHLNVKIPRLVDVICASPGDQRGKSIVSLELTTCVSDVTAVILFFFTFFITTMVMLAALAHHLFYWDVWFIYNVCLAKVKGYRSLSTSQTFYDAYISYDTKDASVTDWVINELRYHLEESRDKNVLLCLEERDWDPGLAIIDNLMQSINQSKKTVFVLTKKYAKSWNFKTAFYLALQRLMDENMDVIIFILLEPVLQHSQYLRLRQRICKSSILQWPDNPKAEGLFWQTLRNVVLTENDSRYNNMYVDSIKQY
The test can be described thus: TLR8 inhibition reporter assay (HEK-Blue, SEAP). The note with it: HEK-Blue cells overexpressing human TLR8, R848 15.9 μM, 22 hour incubation. How it is done:
(§1) TLR7/8/9 Inhibition Reporter Assays
(§2) HEK-Blue™-cells (Invivogen) overexpressing human TLR7, TLR8 or TLR9 receptors were used for screening inhibitors of these receptors using an inducible SEAP (secreted embryonic alkaline phosphatase) reporter gene under the control of the IFN-β minimal promoter fused to five NF-κB and AP-1-binding sites. Briefly, cells are seeded into Greiner 384 well plates (15000 cells per well for TLR7, 20,000 for TLR8 and 25,000 for TLR9) and then treated with test compounds in DMSO to yield a final dose response concentration range of 0.05 nM-50 μM. After a 30 minute compound pre-treatment at room temperature, the cells are then stimulated with a TLR7 ligand (gardiquimod at a final concentration of 7.5 μM), TLR8 ligand (R848 at a final concentration of 15.9 μM) or TLR9 ligand (ODN2006 at a final concentration of 5 nM) to activate NF-κB and AP-1 which induce the production of SEAP. After a 22 hour incubation at 37° C., 5% CO2, SEAP levels are determined with the addition of HEK-Blue™ Detection reagent (Invivogen), a cell culture medium that allows for detection of SEAP, according to manufacturer's specifications. The percent inhibition is determined as the % reduction in the HEK-Blue signal present in wells treated with agonist plus DMSO alone compared to wells treated with a known inhibitor.
In general terms: In a reporter assay the amount or activity of a reporter protein is the signal.

In another test the target is T2, human TLR9 (Homo sapiens, UniProt Q9NR96).
T2 construct: host or cells: HEK-Blue cells
T2 sequence (Q9NR96 26-1032): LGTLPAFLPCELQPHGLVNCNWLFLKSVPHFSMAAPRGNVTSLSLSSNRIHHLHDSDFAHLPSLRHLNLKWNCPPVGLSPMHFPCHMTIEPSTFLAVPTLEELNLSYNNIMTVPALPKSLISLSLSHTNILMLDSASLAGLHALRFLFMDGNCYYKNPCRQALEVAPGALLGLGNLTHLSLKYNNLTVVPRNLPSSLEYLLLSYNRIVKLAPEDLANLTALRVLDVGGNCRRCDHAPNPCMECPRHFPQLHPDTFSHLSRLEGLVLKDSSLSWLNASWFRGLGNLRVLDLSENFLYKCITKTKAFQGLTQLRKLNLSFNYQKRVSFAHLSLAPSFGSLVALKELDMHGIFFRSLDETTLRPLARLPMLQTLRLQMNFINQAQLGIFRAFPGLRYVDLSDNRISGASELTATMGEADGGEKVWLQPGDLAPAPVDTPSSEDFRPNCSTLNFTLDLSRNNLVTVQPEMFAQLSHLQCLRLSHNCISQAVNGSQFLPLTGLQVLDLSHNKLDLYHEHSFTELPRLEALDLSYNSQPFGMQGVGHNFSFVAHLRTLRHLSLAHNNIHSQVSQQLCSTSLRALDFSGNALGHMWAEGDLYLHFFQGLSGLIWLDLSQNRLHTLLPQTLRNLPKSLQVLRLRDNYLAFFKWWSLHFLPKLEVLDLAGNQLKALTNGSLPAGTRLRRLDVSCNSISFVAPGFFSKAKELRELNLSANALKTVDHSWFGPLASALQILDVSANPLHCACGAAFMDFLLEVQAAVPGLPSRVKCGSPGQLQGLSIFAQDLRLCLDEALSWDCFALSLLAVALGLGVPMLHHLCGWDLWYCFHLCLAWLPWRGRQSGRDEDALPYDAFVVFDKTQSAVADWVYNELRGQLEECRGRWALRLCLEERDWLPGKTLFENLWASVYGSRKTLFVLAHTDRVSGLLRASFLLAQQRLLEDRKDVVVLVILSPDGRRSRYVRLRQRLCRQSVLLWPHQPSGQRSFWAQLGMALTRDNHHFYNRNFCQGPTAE
Put plainly: TLR9 inhibition reporter assay (HEK-Blue, SEAP). The note with it: HEK-Blue cells overexpressing human TLR9, ODN2006 5 nM, 22 hour incubation. The procedure: as §1, §2

A further test deals with T3, human TLR7 (Homo sapiens, UniProt Q9NYK1).
T3 construct: host or cells: HEK-Blue cells
T3 sequence (Q9NYK1 27-1049): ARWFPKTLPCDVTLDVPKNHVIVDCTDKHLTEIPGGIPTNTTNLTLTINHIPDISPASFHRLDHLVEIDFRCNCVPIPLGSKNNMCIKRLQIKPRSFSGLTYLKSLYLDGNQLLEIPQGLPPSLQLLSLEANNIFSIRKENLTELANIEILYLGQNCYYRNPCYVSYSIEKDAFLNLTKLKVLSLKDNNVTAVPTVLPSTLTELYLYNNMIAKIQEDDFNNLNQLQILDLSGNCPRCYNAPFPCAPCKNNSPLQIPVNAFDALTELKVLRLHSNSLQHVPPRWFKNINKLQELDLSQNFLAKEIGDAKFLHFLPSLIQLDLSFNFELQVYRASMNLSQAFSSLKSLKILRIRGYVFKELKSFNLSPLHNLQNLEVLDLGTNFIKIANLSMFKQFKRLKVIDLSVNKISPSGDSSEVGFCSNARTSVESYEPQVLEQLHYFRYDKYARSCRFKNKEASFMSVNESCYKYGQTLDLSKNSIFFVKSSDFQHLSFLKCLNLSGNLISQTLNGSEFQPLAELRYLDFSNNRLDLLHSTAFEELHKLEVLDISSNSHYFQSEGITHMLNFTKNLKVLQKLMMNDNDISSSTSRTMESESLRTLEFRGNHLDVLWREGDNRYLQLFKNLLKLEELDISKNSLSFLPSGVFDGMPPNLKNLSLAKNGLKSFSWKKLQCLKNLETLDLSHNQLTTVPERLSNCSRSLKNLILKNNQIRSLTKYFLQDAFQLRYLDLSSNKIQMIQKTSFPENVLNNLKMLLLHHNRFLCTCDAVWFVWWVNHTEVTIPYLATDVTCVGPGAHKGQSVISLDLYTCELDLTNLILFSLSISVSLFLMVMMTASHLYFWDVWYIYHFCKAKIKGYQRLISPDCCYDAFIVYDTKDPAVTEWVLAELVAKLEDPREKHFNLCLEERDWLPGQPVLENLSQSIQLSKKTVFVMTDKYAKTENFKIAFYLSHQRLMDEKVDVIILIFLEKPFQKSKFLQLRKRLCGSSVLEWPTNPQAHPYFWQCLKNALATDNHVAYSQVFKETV
The test can be described thus: TLR7 inhibition reporter assay (HEK-Blue, SEAP). Conditions: HEK-Blue cells overexpressing human TLR7, gardiquimod 7.5 μM, 22 hour incubation. The procedure: as §1, §2

`Cc1c(-c2[nH]c3ccc(C4C[C@H]5CC[C@@H](C4)N5CC(=O)N(C)C)cc3c2C(C)C)cn2cnnc2c1C` (single isomer, unassigned) [Example 118]: the figures for the IC50 at human TLR8, against human TLR9 and against human TLR7 were 159 nM, 5460 nM and 8.7 nM, respectively.
Take `Cc1c(-c2[nH]c3ccc(C4C[C@H]5CC[C@@H](C4)N5CC(=O)N(C)C)cc3c2C(C)C)cn2cnnc2c1C` (single isomer, unassigned) [Example 119]: the IC50 against human TLR8 is 103 nM; at human TLR9, 1020 nM; at human TLR7, 12.9 nM.
Take `Cc1c(-c2[nH]c3ccc(C4C[C@H]5CC[C@@H](C4)N5CC4(C)COC4)cc3c2C(C)C)cn2cnnc2c1C` (single isomer, unassigned) [Example 120]: the results for the IC50 against human TLR8, on human TLR9 and on human TLR7 were 45.9 nM, 3800 nM and 6.7 nM, respectively.
`Cc1c(-c2[nH]c3ccc(C4C[C@H]5CC[C@@H](C4)N5CC4(C)COC4)cc3c2C(C)C)cn2cnnc2c1C` (single isomer, unassigned) [Example 121]: the IC50 against human TLR8 was 47.6 nM; against human TLR9, 4840 nM; against human TLR7, 3.2 nM.
In the case of `Cc1c(-c2[nH]c3ccc(C4C[C@H]5CC[C@@H](C4)N5C4COC4)cc3c2C(C)C)cn2cnnc2c1C` (single isomer, unassigned) [Example 122], the half-inhibitory concentration (IC50) amounted to 98.9 nM at human TLR8, 5940 nM on human TLR9 and 2.3 nM at human TLR7.
For `Cc1c(-c2[nH]c3ccc(C4C[C@H]5CC[C@@H](C4)N5C4COC4)cc3c2C(C)C)cn2cnnc2c1C` (single isomer, unassigned) [Example 123], the IC50 on human TLR8 came to 151 nM; on human TLR9, 8480 nM; against human TLR7, 7.6 nM.
Take `CC(C)c1c(-c2ccc3nncn3c2)[nH]c2ccc(C3CCNCC3)cc12` [Example 1, 6-(3-isopropyl-5-(piperidin-4-yl)-1H-indol-2-yl)-[1,2,4]triazolo[4,3-a]pyridine]: the 50% inhibitory concentration (IC50) on human TLR8 came out at 140 nM; on human TLR9, 902 nM; against human TLR7, 22.8 nM.
On to `Cc1cc(-c2[nH]c3ccc(C4CCNCC4)cc3c2C(C)C)cn2cnnc12` [Example 2, 6-(3-isopropyl-5-(piperidin-4-yl)-1H-indol-2-yl)-8-methyl-[1,2,4]triazolo[4,3-a]pyridine], for which the half-inhibitory concentration (IC50) stood at 12.5 nM against human TLR8, 528 nM against human TLR9 and 4.8 nM against human TLR7.
Taken in the same sequence, the figures for `Cc1nnc2ccc(-c3[nH]c4ccc(C5CCNCC5)cc4c3C(C)C)cn12` [Example 3, 6-(3-isopropyl-5-(piperidin-4-yl)-1H-indol-2-yl)-3-methyl-[1,2,4]triazolo[4,3-a]pyridine] were 40.7 nM, 340 nM and 27.1 nM.
Turning to `Cc1cc2nncn2cc1-c1[nH]c2ccc(C3CCNCC3)cc2c1C(C)C` [Example 4, 6-(3-isopropyl-5-(piperidin-4-yl)-1H-indol-2-yl)-7-methyl-[1,2,4]triazolo[4,3-a]pyridine], the half-maximal inhibitory concentration (IC50) against human TLR8 came out at 2340 nM; on human TLR9 it was 2430 nM; against human TLR7, 56.7 nM.
Turning to `Cc1c(-c2[nH]c3ccc(C4CCNCC4)cc3c2C(C)C)ccc2nncn12` [Example 5, 6-(3-isopropyl-5-(piperidin-4-yl)-1H-indol-2-yl)-5-methyl-[1,2,4]triazolo[4,3-a]pyridine], the concentration for half-maximal inhibition (IC50) at human TLR8 is 133 nM; against human TLR9, 1240 nM; against human TLR7 it was 154 nM.
For the compound `Cc1cc(-c2[nH]c3ccc(C4CCNCC4)cc3c2C(C)C)cn2c(C)nnc12` [Example 6, 6-(3-isopropyl-5-(piperidin-4-yl)-1H-indol-2-yl)-3,8-dimethyl-[1,2,4]triazolo[4,3-a]pyridine], the half-maximal inhibitory concentration (IC50) stood at 18.9 nM at human TLR8, 486 nM on human TLR9 and 5.2 nM against human TLR7.
For `COCc1nnc2ccc(-c3[nH]c4ccc(C5CCNCC5)cc4c3C(C)C)cn12` [Example 7, 6-(3-isopropyl-5-(piperidin-4-yl)-1H-indol-2-yl)-3-(methoxymethyl)-[1,2,4]triazolo[4,3-a]pyridine], in that order: 1230 nM, 3230 nM and 156 nM.
In the case of `Cc1c(-c2[nH]c3ccc(C4CCNCC4)cc3c2C(C)C)cn2cnnc2c1C` [Example 8, 6-(3-isopropyl-5-(piperidin-4-yl)-1H-indol-2-yl)-7,8-dimethyl-[1,2,4]triazolo[4,3-a] pyridine], the half-inhibitory concentration (IC50) on human TLR8 is 29.6 nM; at human TLR9, 1880 nM; at human TLR7 it was 5.2 nM.

The values are drawn from patent US11130756B2, “[1,2,4]Triazolo[4,3-A]pyridinyl substituted indole compounds” (BRISTOL-MYERS SQUIBB COMPANY, priority 2017, dated 2021).
